Test [1] deals with Cricetinae gen. sp. The experiment in a line: Inhibition of lipid synthesis in hamster flank gland after administration of 0.1 mg. Format: functional.
For test [2], the system named is Cricetinae gen. sp. As to the kind of experiment: Inhibition of increase in flank organ weight after administration of 0.5 mg. Format: functional, Cricetulus griseus.
Test [3] deals with Cricetinae gen. sp. The experiment in a line: The compound was tested for the seminal vesicle weight after -5 mg sc administration for 14 days. It counts as functional, Cricetulus griseus.
Test [4] has as its system Cricetinae gen. sp. As to the kind of experiment: Inhibition of increase in flank organ weight after administration of 1.0 mg. It counts as functional, Cricetulus griseus.
Test [5] concerns Cricetinae gen. sp. As to the kind of experiment: The compound was tested for the treated flank organ weight after -5 mg sc administration for 14 days. Format: functional, Cricetulus griseus.
Test [6] deals with Cricetinae gen. sp. As to the kind of experiment: The compound was tested for the treated flank organ weight after -0.375 ug topical application for 14 days. Format: functional, Cricetulus griseus.
The subject of test [7] is Cricetinae gen. sp. The experiment in a line: The compound was tested for the treated flank organ weight after -1 mg sc administration for 14 days. It counts as functional, Cricetulus griseus.
The subject of test [8] is Cricetinae gen. sp. As to the kind of experiment: The compound was tested for the seminal vesicle weight after -1 mg sc administration for 14 days. Format: functional, Cricetulus griseus.
In test [9] the test system is Cricetinae gen. sp. As to the kind of experiment: The compound was tested for the seminal vesicle weight after -0.375 ug topical application for 14 days. Format: functional, Cricetulus griseus.
The test system of test [10] is Cricetinae gen. sp. The experiment in a line: The compound was tested for the seminal vesicle weight after -0.75 ug topical application for 14 days. It counts as functional, Cricetulus griseus.
Test [11] concerns Cricetinae gen. sp. As to the kind of experiment: The compound was tested for the treated flank organ weight after -0.75 ug topical application for 14 days. Format: functional, Cricetulus griseus.

SMILES strings stand for the structures.

Regarding `[O-][S+](CCl)Cc1ccccc1` (stereo unspecified), in the test on Cricetinae gen. sp. [1], the Inhibition (usually the change of the read-out against control, counted positive when it falls) is reported as 14%.
As to `C[C@]12C=CC(=O)C=C1CCC1C2C(=O)C[C@@]2(C)C1CC[C@]2(Cl)[S+]([O-])CCc1ccccc1` (stereo partly specified), the Inhibition came out at 0% in the test on Cricetinae gen. sp. [1] and 16% in the test with Cricetinae gen. sp. [2].
In the test with Cricetinae gen. sp. [1], `C[C@]12C=CC(=O)C=C1CCC1C2CC[C@@]2(C)C1CC[C@]2(Cl)[S+]([O-])Cc1ccccc1` (stereo partly specified) gave an Inhibition of less than 40%.
Take `C[C@]12C=CC(=O)C=C1CCC1C2C(=O)C[C@@]2(C)C1CC[C@]2(Cl)[S+]([O-])Cc1ccccc1` (stereo partly specified): the Inhibition was less than 70% in the test on Cricetinae gen. sp. [1], 53% with Cricetinae gen. sp. [4] and 43% with Cricetinae gen. sp. [2]. Also, the Organ weight in the test on Cricetinae gen. sp. [3] is reported as 128 mg; with Cricetinae gen. sp. [5], less than 19.5 mg; with Cricetinae gen. sp. [6], less than 29.5 mg; with Cricetinae gen. sp. [7], less than 21.5 mg; with Cricetinae gen. sp. [8] it was 138 mg; in the test on Cricetinae gen. sp. [9], 351 mg. Also, the results for the Organ weight with Cricetinae gen. sp. [10] and with Cricetinae gen. sp. [11] were 358 mg and less than 23.7 mg, respectively.
Regarding `C[C@]12C=CC(=O)C=C1CCC1C2C(=O)C[C@@]2(C)C1CC[C@H]2[S+]([O-])C(Cl)c1ccccc1` (stereo partly specified), the Inhibition in the test on Cricetinae gen. sp. [1] worked out at 0%.
On the same count and under the same terms, with `C[C@]12C=CC(=O)C=C1CCC1C2C(=O)C[C@@]2(C)C1CC[C@]2(Cl)S(=O)(=O)Cc1ccccc1` (stereo partly specified) the figure was less than 31%; with `C[C@]12C=CC(=O)C=C1CCC1C2[C@@H](O)C[C@@]2(C)C1CC[C@]2(Cl)[S+]([O-])Cc1ccccc1` (stereo partly specified), less than 20%; with `C[C@]12C=CC(=O)C=C1CCC1C2CC[C@@]2(C)C1CC[C@H]2SCc1ccccc1` (stereo partly specified), 0%.
The same measure, in the same setting: with `C[C@]12C=CC(=O)C=C1CCC1C2C(=O)C[C@@]2(C)C1CC[C@H]2Sc1ccccc1` (stereo partly specified) the figure was less than 25%.
The same measure, in the same setting: for `[O-][S+](Cc1ccccc1)[C@@H](Cl)c1ccccc1` (stereo partly specified) the value was 14%; for `C[C@]12C=CC(=O)C=C1CCC1C2C(=O)C[C@@]2(C)C1CC[C@H]2SCc1ccccc1` (stereo partly specified), less than 29%.
Take `C[C@]12C=CC(=O)C=C1CCC1C2[C@@H](O)C[C@@]2(C)C1CC[C@H]2SCc1ccccc1` (stereo partly specified): the Inhibition in the test with Cricetinae gen. sp. [1] is 0%.
The same measure, in the same setting: with `C[C@]12C=CC(=O)C=C1CCC1C2C(=O)C[C@@]2(C)C1CC[C@H]2[S+]([O-])Cc1ccccc1` (stereo partly specified) the figure was 28%; with `CCCCC[S+]([O-])[C@@]1(Cl)CCC2C3CCC4=CC(=O)C=C[C@]4(C)C3C(=O)C[C@@]21C` (stereo partly specified), less than 29%; with `Cc1ccccc1C[S+]([O-])[C@@]1(Cl)CCC2C3CCC4=CC(=O)C=C[C@]4(C)C3C(=O)C[C@@]21C` (stereo partly specified), 31%.
Still for that read-out and setting: for `C[C@]12C=CC(=O)C=C1CCC1C2C(=O)C[C@@]2(C)C1CC[C@]2(Cl)[S+]([O-])Cc1ccc(Cl)cc1Cl` (stereo partly specified) the value was 20%.
Still for that read-out and setting: with `C[C@]12C=CC(=O)C=C1CCC1C2C(=O)C[C@@]2(C)C1CC[C@]2(Cl)[S+]([O-])c1ccccc1` (stereo partly specified) the figure was 20%.
With `C[C@]1(O)CC[C@H]2[C@@H]3CCC4=CC(=O)CC[C@@H]4[C@H]3CC[C@@]21C` [NORMETHANDRONE], the Organ weight in the test with Cricetinae gen. sp. [3] is reported as less than 94 mg; with Cricetinae gen. sp. [5], less than 22.1 mg; in the test on Cricetinae gen. sp. [6], less than 15.6 mg; with Cricetinae gen. sp. [7], less than 22.5 mg; in the test with Cricetinae gen. sp. [8] it was 121 mg; in the test with Cricetinae gen. sp. [9], 316 mg. Moreover, the results for the Organ weight in the test on Cricetinae gen. sp. [10] and in the test on Cricetinae gen. sp. [11] were less than 283 mg and less than 13.7 mg, respectively.

The values above are taken from ChEMBL document CHEMBL1122313, “Novel 17 alpha-chloro-17 beta-sulfinyl steroids as specific inhibitors of sebaceous gland activity: potential antiacne agents” (1983).
